Reference: US4871774A, “Medical treatment” (The Boots Company PLC, priority 1987, dated 1989)
“And” between values parts separate entries of the source, which are not always exact repeats. Identical values can stand only once.

Columns and labels:
[1] = system: uptake of radiolabelled dopamine into rat striatal synaptosomes; assay: Inhibition of dopamine uptake in vitro by plasma from drug treated rats (3H-dopamine, rat striatal synaptosomes); type: biochemical, rat (CD, Sprague-Dawley); settings: for % Inhibition of dopamine uptake in Individual Rats: hydrochloride monohydrate; for % Inhibition of dopamine uptake, Mean (±SEM): mean of 4 rats
Procedure: (3) Inhibition of dopamine uptake in vitro by plasma from drug treated rats
To obtain the synaptosomes, untreated male CD rats (Sprague-Dawley 200-250 g; Charles River) were killed by cervical dislocation, the brains removed and the striata of two or three rats dissected out and placed in ice-cold saline. The pooled tissue was homogenised in 20 volumes of ice-cold 0.32M sucrose in a glass-teflon homogeniser with 0.35 mm clearance. The homogenate was spun at 1500×g for 10 minutes in a refrigerated (4° C.) Heraeus Christ minicentrifuge. The supernatant was transferred into a polypropylene sterilin tube and stored on ice for as short a time as possible prior to use in the radiolabelled dopamine uptake assay.
Control rats were orally administered distilled water. After one hour the rats were killed by CO2 inhalation overdose, the chest cavity opened and blood immediately removed from the heart and mixed with an anticoagulant solution.
The rat blood/anticoagulant mixture was spun at 5750×g for 20 minutes in a Heraeus Christ minicentrifuge at room temperature. The plasma was removed and kept at room temperature for as short a time as possible before analysis in the radiolabelled dopamine uptake assay. The fresh plasma samples from the rat study were initially maintained at 37° C. for 10-15 minutes before starting the assay. 300 μl of each plasma sample was added to six 5 ml polypropylene tubes already containing 50 μl of saline at room temperature. Four of these tubes were incubated at 37° C. to assess active radiolabelled dopamine uptake. The other two tubes were immediately cooled to c.3° C. and maintained at this temperature to account for passive radiolabelled dopamine uptake.
(a) Active uptake of radiolabelled dopamine
To each tube at 37° C. was added 100 μl of fresh striatal synaptosomes, prepared as above. These tubes were then agitated in the water bath at 37° C. for 5 minutes prior to the addition of 50 μl ice-cold ^3 H-dopamine solution (final concentration 1×10^-7 M) (Amersham International). The reaction was stopped after a further 5 minutes of agitation and incubation at 37° C. by removing the tubes from the water bath and immediately adding 4 ml of ice-cold saline. The contents of the tube were then rapidly filtered over Whatman glass fibre (GF/F) filters supported on a Millipore 1225 manifold linked to an Edwards 2-stage vacuum pump. The tubes were rinsed with 2×4 ml of ice-cold saline and this was also rapidly filtered. Finally, each manifold well was washed with 4 ml of ice-cold saline.
(b) Passive uptake of radiolabelled dopamine
To the two tubes maintained at c.3° C. was added 100 μl of fresh striatal synaptosomes followed by 50 μl of ice-cold ^3 H-dopamine solution (final concentration 1×10^-7 M). The "reaction" in these tubes was terminated by the addition of 4 ml ice-cold saline and the samples were then rapidly filtered and washed as described in (a) above.
All filters were placed into glass vials and 10 ml of Packard ES-299 scintillation fluid added. Filters were allowed to solubilise for at least 1 hour before the radioactivity accumulated was assayed by liquid scintillation counting.
(c) Calculation of percentage inhibition of ^3 H-dopamine uptake
The amount of passive uptake of ^3 H-dopamine at c.3° C. (measured in cpm) was subtracted from the amount of active ^3 H-dopamine uptake at 37° C. (measured in cpm) to derive net ^3 H-dopamine uptake. The resulting value was then expressed as a percentage (X) of the net ^3 H-dopamine uptake recorded for control plasma. The latter plasma samples were obtained from distilled water-treated control rats. The percentage inhibition value (X) was calculated using the following formula: [formula]
Mean [±1 standard error of the mean (SEM)] percentage inhibition was then determined for each dose.

[2] = system: dopamine reuptake; unilateral nigrostriatal lesioned rats; assay: Ipsilateral circling behaviour of unilateral nigrostriatal (6-OHDA) lesioned rats; type: in vivo, rat (CD); settings: 30 mg/kg oral
Excerpt: The two tracts of the nigrostriatal dopamine system are independent and are located on either side of the midline of the brain. When one tract is destroyed using the specific neurotoxin, 6-hydroxydopamine (6-OHDA), rats will display characteristic circling behaviour after injection of dopaminergic drugs. The direction of rotation, however, is dependent on the stimulus employed. Drugs which inhibit dopamine reuptake can only function on the unlesioned side of the brain and induce circling towards the lesion site (known as ipsilateral circling.)
Male CD rats (250-300 g: Charles River) were anaesthetised with `Equithesin` type anaesthetic (3.2 ml/kg i.p.) and secured in a stereotaxic frame (David Kopf Small Animal Stereotaxic Instrument DKI 900). After shaving the area, a saggital incision of 1.5-2 cm was made and skin flaps dissected from the skull. A small hole was made in the skull, using a No. 6 dental burr, to allow the tip of a 30 s.w.g. stainless steel cannula to be inserted to the left substantia nigra. This was located by using the following co-ordinates, using skull landmark bregma as the zero reference point; rostral-caudal -2.8; medial-lateral +2.0; dorsal-ventral -8.0 from the surface of the dura, all co-ordinates measured in millimetres. This system of co-ordinates is a modification of the de Groot system as described by Pellegrino et al (A stereotaxic atlas of the rat brain, 2nd Edition, Plenum Press 1979). 6-Hydroxydopamine HBr (2 μg/μl, as base: Sigma Chemical Co.) was injected into the left substantia nigra at 1 μl/min; a total of 8 μg was administered over a period of 4 minutes using an infusion pump (Braun `Perfusor` ED2). After removal of the cannula, the skin flaps were joined with a single everted suture and the animal allowed to recover.
After 21 days, the circling behaviour of the rats was examined. They were placed, individually, in circular plastic arenas (30 cm diameter×12 cm high) for 1 hour, with no access to food or water during this period. […] One `turn` consisted of rotation through 360° in either direction. As rats were always lesioned on the left side of the brain, anticlockwise turns were ipsilateral.
Control values were determined for all rats by observing their spontaneous circling behaviour in the arenas without prior dosing. The mean turns per minute was always less than 1.
The rats were challenged with an intraperitoneal dose of methamphetamine (2 mg/kg) and immediately placed in the arenas. In these experiments circling behaviour was monitored during two periods, 0-1 h and 4-5 h after dosing. Rats giving a mean of more than 5 ipsilateral turns per minute during the first hour in response to methamphetamine were used in subsequent tests. Following selection, the rats were used in groups of 5 or more rats to test the drug under investigation.

[3] = system: uptake of dopamine into synaptosomes from rat striata; assay: Inhibition of dopamine uptake in vitro by plasma from drug treated rats obtained over a period of time after a single 30 mg/kg dose; type: biochemical; settings: for % Inhibition of dopamine uptake - Mean (± SEM): 30 mg/kg oral
Procedure: (4) Inhibition of dopamine uptake in vitro by plasma from drug treated rats obtained over a period of time after a single 30 mg/kg dose
The percentage inhibition of dopamine uptake was determined in a similar manner to that described in (3) above. […]

[4] = plasma 1 h after 100 mg/kg oral

CC(C)CC(N(C)C)C1(c2ccc(Cl)cc2)CCC1.Cl.O (centres unmarked) [N,N-dimethyl-1-[1-(4-chlorophenyl)cyclobutyl]-3-methylbutylamine hydrochloride monohydrate]
% Inhibition of dopamine uptake in Individual Rats ([1]; plasma 1 h after 10 mg/kg oral): 33% and 23% and 13% and 17% | % Inhibition of dopamine uptake, Mean (±SEM) ([1]; plasma 1 h after 10 mg/kg oral): 22.8 ± 5.5% | % Inhibition of dopamine uptake in Individual Rats ([1]; plasma 1 h after 30 mg/kg oral): 54% and 35% and 49% and 42% | % Inhibition of dopamine uptake, Mean (±SEM) ([1]; plasma 1 h after 30 mg/kg oral): 45.0 ± 4.1% | % Inhibition of dopamine uptake in Individual Rats [1, 4]: 53% and 59% and 67% and 55% | % Inhibition of dopamine uptake, Mean (±SEM) [1, 4]: 58.5 ± 3.1% | inhibition of radiolabelled dopamine uptake (in words) ([1]; plasma from rats, 10, 30 or 100 mg/kg oral): dose-dependent inhibition of radiolabelled dopamine uptake | duration of action as an inhibitor of dopamine reuptake (in words) [2]: long lasting action as an inhibitor of dopamine reuptake | ipsilateral turns/min (Mean ± SEM) ([2]; 0-1 hrs after dosing): 3.0 ± 0.6 turns/min | ipsilateral turns/min (Mean ± SEM) ([2]; 4-5 hrs after dosing): 6.7 ± 1.4 turns/min | ipsilateral turns/min (Mean ± SEM) ([2]; 8-9 hrs after dosing): 8.6 ± 1.8 turns/min | ipsilateral turns/min (Mean ± SEM) ([2]; 24-25 hrs after dosing): 6.2 ± 1.7 turns/min | ipsilateral turns/min (Mean ± SEM) ([2]; 48-49 hrs after dosing): 1.7 ± 0.5 turns/min | % Inhibition of dopamine uptake - Mean (± SEM) ([3]; 1 hr after dosing): 45.0 ± 4.1% | % Inhibition of dopamine uptake - Mean (± SEM) ([3]; 3 hrs after dosing): 63.0 ± 1.7% | % Inhibition of dopamine uptake - Mean (± SEM) ([3]; 8 hrs after dosing): 73.4 ± 3.5% | % Inhibition of dopamine uptake - Mean (± SEM) ([3]; 24 hrs after dosing): 31.5 ± 2.4% | % Inhibition of dopamine uptake - Mean (± SEM) ([3]; 48 hrs after dosing): 19.5 ± 5.2% | % Inhibition of dopamine uptake - Mean (± SEM) ([3]; 72 hrs after dosing): 10.4 ± 1.6% | persistence of inhibition of dopamine uptake by rat plasma (in words) ([3]; single 30 mg/kg oral dose): persists for a considerable period of time after dosing
